In one test the target is ABL1 (Homo sapiens, UniProt P00519). Kind of test: ABL kinase assay (Z'-LYTE biochemical kinase profiling). As to conditions: ATP 10 μM final. The procedure:
ABL Kinase Assays (Data in FIG. 1)
The direct inhibitory effect of the test compounds on the ABL kinases activity was assessed using the Z′-LYTE biochemical kinase profiling assays (SelectScreen Kinase Profiling assays, Life Technologies). The Z′-LYTE biochemical assay employs a fluorescence-based, coupled-enzyme format and is based on the differential sensitivity of phosphorylated and non-phosphorylated peptides to proteolytic cleavage. The peptide substrate is labeled with two fluorophores (one at each end) that make up a FRET pair. In the primary reaction, the kinase transfers the gamma-phosphate of ATP to a single tyrosine, serine or threonine residue in a synthetic FRET-peptide. In the secondary reaction, a site-specific protease recognizes and cleaves non-phosphorylated FRET-peptides. Phosphorylation of FRET-peptides suppresses cleavage by the Development Reagent. Cleavage disrupts FRET between the donor and acceptor fluorophores on the FRET-peptide, whereas uncleaved, phosphorylated FRET-peptides maintain FRET. The extent of phosphorylation of the FRET-peptide can be calculated from the Emission Ratio between cleaved and uncleaved FRET-peptides. The Emission Ratio will remain low if the FRET-peptide is phosphorylated (i.e., no kinase inhibition) and will be high if the FRET-peptide is non-phosphorylated (i.e., kinase inhibition).
Using the above described assay, The Test Compounds were screened in 1% DMSO (final) in the well. 10 point titrations, 3-fold serial dilutions were conducted. Briefly, in a black 384-well plate serial dilutions of test compound or 100 nL 100× were mixed with kinase buffer peptide/Kinase Mixture and ATP Solution (10 μM final). After one hour Kinase Reaction incubation at room temperature, the development Reagent Solution was added. Subsequently, the fluorescence signals were measured using a fluorescence plate reader. Data were analyzed and the IC50 were calculated with XLfit graphing software using the sigmoidal dose-response model.

The target of a further test is T1, PARP1 (Homo sapiens, UniProt P09874).
T1 construct: purchased Trevigen 4677-096-K
T1 sequence (P09874 whole entry): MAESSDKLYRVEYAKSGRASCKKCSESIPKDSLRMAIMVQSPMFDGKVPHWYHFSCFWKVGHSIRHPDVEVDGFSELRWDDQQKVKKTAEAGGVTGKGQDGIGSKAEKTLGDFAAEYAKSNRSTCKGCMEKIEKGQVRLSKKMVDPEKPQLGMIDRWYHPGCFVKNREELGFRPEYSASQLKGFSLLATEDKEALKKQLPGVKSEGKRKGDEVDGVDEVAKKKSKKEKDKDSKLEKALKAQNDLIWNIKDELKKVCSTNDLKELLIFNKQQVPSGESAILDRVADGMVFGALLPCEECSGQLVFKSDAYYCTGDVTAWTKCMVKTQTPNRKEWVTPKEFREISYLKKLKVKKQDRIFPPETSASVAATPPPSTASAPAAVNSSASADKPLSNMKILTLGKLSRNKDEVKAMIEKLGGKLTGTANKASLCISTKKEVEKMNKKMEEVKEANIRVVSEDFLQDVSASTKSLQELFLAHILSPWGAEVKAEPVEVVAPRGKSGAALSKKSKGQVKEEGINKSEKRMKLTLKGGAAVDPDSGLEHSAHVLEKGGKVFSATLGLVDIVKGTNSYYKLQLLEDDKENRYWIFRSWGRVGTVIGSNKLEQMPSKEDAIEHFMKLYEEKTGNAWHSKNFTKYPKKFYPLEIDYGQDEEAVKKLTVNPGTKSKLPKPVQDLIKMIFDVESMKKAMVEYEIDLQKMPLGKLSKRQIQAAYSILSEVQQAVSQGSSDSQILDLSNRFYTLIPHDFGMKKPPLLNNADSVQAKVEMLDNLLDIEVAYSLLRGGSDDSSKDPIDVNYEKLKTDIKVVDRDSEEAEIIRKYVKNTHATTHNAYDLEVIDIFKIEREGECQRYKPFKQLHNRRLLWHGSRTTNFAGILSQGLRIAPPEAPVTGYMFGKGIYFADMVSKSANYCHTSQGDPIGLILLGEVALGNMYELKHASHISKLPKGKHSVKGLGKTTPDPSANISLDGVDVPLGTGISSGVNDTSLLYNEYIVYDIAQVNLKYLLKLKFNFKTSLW
The test can be described thus: PARP enzymatic activity inhibition (Trevigen HT Universal PARP Assay Kit). The class given is biochemical. As for the experimental part:
PARP Enzymatic Activity Inhibition: Determination of IC50 Values for Selected Compounds (Data in FIG. 1)
(§1) The half maximal inhibitory concentration (IC50) with respect to PARP inhibition was determined for each test compound by using Trevigen's HT Universal PARP Assay Kit, according to the manufacturer's protocol (Cat #4677-096-K, Gaithersburg, Md.). This assay measures the incorporation of biotinylated poly(ADP-ribose) onto histone proteins in a 96-well strip well format. This assay is ideal for the determination of IC50 values of known or suspected PARP inhibitors. Briefly, stock solutions of each test compound were prepared in DMSO. Histone strip wells were incubated for 30 minutes at room temperature with 50 μl/well of 1×PARP Buffer to rehydrate the histones. Serial dilutions of either test compound were added to appropriate wells. Diluted PARP enzyme (0.5 Unit/well) was then added to the wells containing compounds, and incubated for 10 minutes at room temperature. Subsequently, 25 μl of 1×PARP Cocktail, containing activated DNA, was distributed into each well. Three types of control wells were also analyzed; i. A negative control without PARP was prepared to determine background absorbance. ii. An activity control for PARP Inhibitor Study: 0.5 Unit/well PARP-HSA without inhibitors. These wells provided the 100% activity reference point. iii. And a PARP Standard Curve: Serial dilution of the PARP-HAS standard were prepared in cold microtubes with 1×PARP Buffer such that the total activity is 1 Unit/25 μl, 0.5 Units/25 μl, 0.25 Units/25 μl, 0.1 Units/25 μl, 0.05 Units/25 μl, 0.025 Units/25 and 0.01 Units/25 μl. 25 μl of each standard was added to triplicate wells. Following a 60 minutes incubation at room temperature, the strip wells were washed twice with 1×PBS+0.1% Triton X-100, and twice with 1×PBS. For activity detection, 50 μl per well of diluted Strep-HRP was added, and then incubated at room temperature for 60 minutes. Subsequently, 50 μl per well of pre-warmed TACS-Sapphire™ colorimetric substrate was added followed by a 15 minutes incubation, in the dark, at room temperature. The reactions were then stopped by adding 50 μl per well of 0.2M HCl or 5% Phosphoric Acid and read the absorbance at 450 nm.
The IC50 values were determined by performing non-linear regression analysis fitting velocities and the logarithm of inhibitor concentrations to a sigmoidal dose response with a variable slope model using the GraphPad Prism 6.0 software.

The next test relates to A549. The test can be described thus: Cell viability assay in solid tumor cell lines (Cell-Titer Glo), A549. The class given is cell-based. The following applies: Homo sapiens, 72 hours. As for the experimental part:
(§2) Cell Viability Assay in Solid Tumors Cell Lines (Data in FIG. 2)
(§3) Human cancer cell lines (lung, ovarian, breast pancreatic and mesothelioma) were purchased from the ATCC. The cell lines were cultured in RPMI 1640 (Life Technologies, Carlsbad, Calif.) supplemented with 10% fetal bovine serum (FBS) and antibiotics. […] At the end of treatment, cell proliferation was determined by an intracellular adenosine triphosphate monitoring system (Cell-Titer Glo-Promega).
(§4) Inhibitory activity was evaluated comparing treated versus control data using the GraphPad Prism 6.0 software.

In another test the test system is bovine brain tubulin. Kind of test: Tubulin polymerization assay (Cytoskeleton kit BK011P). Type of test: biochemical. The following applies: % Inhibition versus control; compound concentration of 4 μM. An excerpt:
Tubulin Polymerization Assay (Data in FIG. 1)
The high-throughput screening-tubulin polymerization assay kit (Cytoskeleton, Cat. #BK011P) is an economical one step procedure for determining the effects of drugs or proteins on tubulin polymerization. Polymerization is followed by fluorescence enhancement due to the incorporation of a fluorescent reporter into microtubules as polymerization occurs. The standard assay tubulin generates a polymerization curve representing the three phases of microtubule formation, namely nucleation, growth, and steady state equilibrium. Compounds that interact with tubulin will often alter one or more of the characteristic phases of polymerization. For example, the anti-mitotic drug paclitaxel eliminates the nucleation phase and enhances the Vmax of the growth phase. Similarly, the microtubule destabilizing drug, vinblastine (also antimitotic) causes a decrease in Vmax and a reduction in final polymer mass. Thus, one application of this assay is the identification of novel anti-mitotics.
The direct effects of the test compounds on tubulin polymerization were investigated using the abovementioned Tubulin polymerization assay kit (Cytoskeleton, Cat. #BK011P), as indicated by the manufacturer protocol. Briefly, bovine brain tubulin (400 μg/sample) in the presence of either 0.5% DMSO treated (control), 4 μM test compounds, 3 μM paclitaxel (Cytoskeleton), or 3 μM vinblastine (Cytoskeleton) was incubated in PEM buffer [80 mm PIPES, 1 mm EGTA, 1 mm MgCl2 (pH 6.8)] containing 1.0 mm GTP (G-PEM) and 15% glycerol, at 37 C. All samples (wells) contained 15% glycerol. The degree of polymerization over time was measured in a spectrophotometer (Biotek synergy HT plate reader) at 350 nm. All time points were plotted and analyzed using GraphPad Prism 6.0 software.
DMSO control was set as 0% inhibition. Positive values depict the percentage of decrease in Vmax and final polymer mass, as compared to control. Negative values are inversely correlated to degree of nucleation phase elimination and the percentage of increase of the Vmax, as compared to control.

For another test, the target named is PARP2 (Homo sapiens, UniProt Q9UGN5). Kind of test: PARP enzymatic activity inhibition, PARP2 column. Type of test: biochemical. The procedure:
as §1, with “And a PARP Standard Curve: Serial dilution of the PARP-HAS standard were prepared in cold microtubes with 1×PARP Buffer such that the total activity is 1 Unit/25 μl, 0.5 Units/25 μl, 0.25 Units/25 μl, 0.1 Units/25 μl, 0.05 Units/25 μl, 0.025 Units/25 and 0.01 Units/25 μl. 25 μl of each standard was added to triplicate wells. Following a 60 minutes incubation at room temperature, the strip wells were washed twice with 1×PBS+0.1% Triton X-100, and twice with 1×PBS. For activity detection, 50 μl per well of diluted Strep-HRP was added, and then incubated at room temperature for 60 minutes. Subsequently, 50 μl per well of pre-warmed TACS-Sapphire™ colorimetric substrate was added followed by a 15 minutes incubation, in the dark, at room temperature.” left out

In a further test the test system is OVCAR8. Kind of test: Cell viability assay in solid tumor cell lines (Cell-Titer Glo), OVCAR8. As to conditions: Homo sapiens, OVCAR-8, 72 hours. Type of test: cell-based. The procedure: as §2, §3, §4

pIC50: −log10 of the molar value. Bounds are passed on as bounds.

Sequence of PARP2 (Q9UGN5 whole entry, species assumed): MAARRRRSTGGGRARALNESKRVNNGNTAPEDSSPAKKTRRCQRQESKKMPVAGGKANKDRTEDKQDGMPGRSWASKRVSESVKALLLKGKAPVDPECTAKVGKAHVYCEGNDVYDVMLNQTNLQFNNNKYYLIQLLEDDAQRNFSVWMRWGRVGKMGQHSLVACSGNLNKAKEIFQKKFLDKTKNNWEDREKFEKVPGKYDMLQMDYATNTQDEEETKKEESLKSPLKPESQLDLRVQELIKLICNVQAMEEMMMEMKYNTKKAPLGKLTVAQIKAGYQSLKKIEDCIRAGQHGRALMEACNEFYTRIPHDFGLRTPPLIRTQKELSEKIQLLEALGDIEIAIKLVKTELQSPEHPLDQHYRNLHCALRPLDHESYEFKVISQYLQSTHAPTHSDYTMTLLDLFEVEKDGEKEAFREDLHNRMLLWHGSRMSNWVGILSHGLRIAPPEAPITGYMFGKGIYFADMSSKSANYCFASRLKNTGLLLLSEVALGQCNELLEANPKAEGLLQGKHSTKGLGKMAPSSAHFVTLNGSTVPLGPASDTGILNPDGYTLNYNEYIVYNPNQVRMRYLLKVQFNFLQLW
Sequence of ABL1 (P00519 whole entry): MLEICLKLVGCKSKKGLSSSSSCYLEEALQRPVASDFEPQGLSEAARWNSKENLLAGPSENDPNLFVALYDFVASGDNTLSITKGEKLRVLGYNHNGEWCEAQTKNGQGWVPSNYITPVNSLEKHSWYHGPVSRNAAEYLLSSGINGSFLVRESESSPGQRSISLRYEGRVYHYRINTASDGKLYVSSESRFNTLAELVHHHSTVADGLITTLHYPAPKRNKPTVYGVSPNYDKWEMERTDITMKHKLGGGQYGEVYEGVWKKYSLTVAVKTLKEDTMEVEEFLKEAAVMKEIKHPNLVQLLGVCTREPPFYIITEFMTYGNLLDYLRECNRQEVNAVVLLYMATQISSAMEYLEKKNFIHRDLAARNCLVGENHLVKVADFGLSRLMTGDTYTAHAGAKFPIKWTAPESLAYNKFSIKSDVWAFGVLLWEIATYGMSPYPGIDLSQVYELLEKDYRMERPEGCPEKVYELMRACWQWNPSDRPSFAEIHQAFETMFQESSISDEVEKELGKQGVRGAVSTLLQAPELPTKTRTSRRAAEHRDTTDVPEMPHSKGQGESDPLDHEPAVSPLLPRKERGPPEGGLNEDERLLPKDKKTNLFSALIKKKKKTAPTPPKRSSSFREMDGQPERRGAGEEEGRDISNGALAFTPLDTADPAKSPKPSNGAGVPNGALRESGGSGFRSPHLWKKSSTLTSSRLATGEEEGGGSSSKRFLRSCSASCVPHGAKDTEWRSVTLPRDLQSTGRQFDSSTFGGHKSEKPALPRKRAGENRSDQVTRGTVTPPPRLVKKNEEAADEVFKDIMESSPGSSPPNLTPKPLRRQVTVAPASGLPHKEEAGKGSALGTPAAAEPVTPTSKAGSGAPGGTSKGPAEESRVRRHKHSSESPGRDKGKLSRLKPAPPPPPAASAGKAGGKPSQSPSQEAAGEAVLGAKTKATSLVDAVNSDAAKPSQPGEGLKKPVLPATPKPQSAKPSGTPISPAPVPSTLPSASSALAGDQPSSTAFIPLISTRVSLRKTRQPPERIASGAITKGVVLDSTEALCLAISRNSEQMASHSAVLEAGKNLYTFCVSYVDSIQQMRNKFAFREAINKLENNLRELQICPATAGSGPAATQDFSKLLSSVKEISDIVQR

For `CCOC(=O)Nc1nc2cc(-c3n[nH]c(=O)c4ccccc34)ccc2[nH]1` [Compound No. 1, Ethyl (5-(4-oxo-3,4-dihydrophthalazin-1-yl)-1H-benzimidazol-2-yl)carbamate], the pIC50 was > 6.30 on ABL1; 5.00 to 5.30 at PARP1; > 6.30 in the test with A549; > 6.30 against PARP2; > 6.30 in the test on OVCAR8. In addition, in the test on bovine brain tubulin, the “Tubulin Polymerization Inhibition” value is recorded as “Y (Y = (% Inhibition versus control) ≤20%. Results with a compound concentration of 4 μM)”.

The record behind these values is US11708352B2, “Anti-cancer compounds” (THE REGENTS OF THE UNIVERSITY OF CALIFORNIA, priority 2015, dated 2023).
